Laboratory results: patent publication US9046516B2, “Immunoassay method, reagent kit for detecting alkaline phosphatase, and reagent kit for immunoassay” (SYSMEX CORPORATION, priority 2007, dated 2015)

Tested on: endogenous ALP
Test: HBs antigen immunoassay with ALP label: luminescence intensity of samples, reduction of the influence of endogenous ALP
Format: biochemical
Conditions: particle dispersion with 2 mM levamisole
Experimental: In this example, the effect of the inhibitor of endogenous ALP contained in the particle dispersion prepared in (4) above on reduction of the influence of endogenous ALP was examined.
Specifically, the reagents prepared in (1) to (5) above were used and the luminescence intensities of HBs antigen-negative samples were measured. The measurement method is described below.
First, 25 μL sample was mixed with 30 μL of the HBs antibody reagent and then incubated at 42° C. for about 3 minutes, whereby an HBs antigen in the sample was reacted with the biotinylated HBs antibody in the HBs antibody reagent. Subsequently, 30 μL of the magnetic particle reagent was added to the mixture and then incubated for about 2 minutes, and a complex consisting of the HBs antigen and the biotinylated HBs antibody was immobilized on the ST magnetic particles. […] 50 μL of the particle dispersion was added to the ST magnetic particles from which the wash fluid had been removed, then the ST magnetic particles were dispersed in the particle dispersion, 100 μL of the substrate solution was added thereto, and the luminescence intensity of the sample was measured with LUMI-COUNTER 700 (Microtec Nichion). […]

## c1ccc([C@H]2CN3CCSC3=N2)cc1 [Levamisole, (−)-2,3,5,6-tetrahydro-6-phenylimidazo[1,2-b]thiazole]
Negative control NC (0.1 M TEA buffer solution containing 5% BSA, pH 7.0)
  With Levamisole (Luminescence Intensity, Counts): 705 Counts
Positive control PC (HBs antigen-positive serum)
  With Levamisole (Luminescence Intensity, Counts): 258759 Counts
